Experimental data: article PMC5715595 (British Journal of Pharmacology, 2017)
Read-outs that look alike come from different tables or passages of the source.

Experiments:
CaV1.2 = CaV1.2 (Homo sapiens, UniProt Q13936); test: cell-based
Description: (§1) and CiPA Initiative Studies
(§2) =============================================================
(§3) In vitro studies on other ion channels […]
(§4) through NaV1.5, KV4.3, KV7.1/mink, Kir2.1, KV1.5, CaV1.2 and CaV3.2 channels.
(§5) 35-mm dish culture in the conditions mentioned in standard cell culture conditions. Experiments were performed with a cell density enabling isolated cells for patch clamping. Cells were continuously superfused with extracellular medium (1-2 mL∙minute-1) at room temperature.
(§6) D-glucose 10, HEPES 10 and the final pH adjusted to 7.4±0.02 with NaOH for recording NaV1.5, KV4.3, KV7.1/mink, Kir2.1, KV1.5 and CaV3.2 currents. It was (in mM): NaCl 110, KCl 4, BaCl2 20, MgCl2 1, D-glucose 20, HEPES 10 and the final pH adjusted to 7.4 ± 0.02 with NaOH for recording the CaV1.2 current. Compositions of the intracellular solution to fill the pipette are […]
(§7) Composition of intracellular solutions used to fill pipette to record currents through NaV1.5, KV4.3, KV7.1/mink, Kir2.1, KV1.5, CaV1.2 and CaV3.2 channels
(§8) Solution to fill the pipette (mM)
(§9) Creatine-phospho kinase 50 U∙mL-1
(§10) After formation of a Gigaohm seal between the patch electrodes and individual cells (pipette resistance range: 2.0 MΩ - 7.0 MΩ; seal resistance range: > 1 GΩ) the cell membrane across the pipette tip was ruptured to assure electrical access to the cell interior (whole-cell patch-configuration). In case the quality of the seal was poor, the process of seal formation was repeated with a different cell and a new pipette. As soon as a stable seal was established outward tail currents were measured upon pulses described in the Table S2. If current density was judged to be too low for measurement, another cell was recorded. […]
(§11) voltage stimulation protocol indicated in the next table continuously run until the steady-state level of block was reached.
(§12) Stimulation conditions used to record currents through NaV1.5, KV4.3, KV7.1/mink, Kir2.1, KV1.5, CaV1.2 and CaV3.2 channels
(§13) Ion channel Holding potential Pulse / duration Frequency Reference compound […]
(§14) (resting / fast / slow sweeps at one (10 mM) inactivated concentration)

NaV1.5 = NaV1.5 (Homo sapiens, UniProt Q14524); test: cell-based
Sequence of NaV1.5 (Q14524 whole entry): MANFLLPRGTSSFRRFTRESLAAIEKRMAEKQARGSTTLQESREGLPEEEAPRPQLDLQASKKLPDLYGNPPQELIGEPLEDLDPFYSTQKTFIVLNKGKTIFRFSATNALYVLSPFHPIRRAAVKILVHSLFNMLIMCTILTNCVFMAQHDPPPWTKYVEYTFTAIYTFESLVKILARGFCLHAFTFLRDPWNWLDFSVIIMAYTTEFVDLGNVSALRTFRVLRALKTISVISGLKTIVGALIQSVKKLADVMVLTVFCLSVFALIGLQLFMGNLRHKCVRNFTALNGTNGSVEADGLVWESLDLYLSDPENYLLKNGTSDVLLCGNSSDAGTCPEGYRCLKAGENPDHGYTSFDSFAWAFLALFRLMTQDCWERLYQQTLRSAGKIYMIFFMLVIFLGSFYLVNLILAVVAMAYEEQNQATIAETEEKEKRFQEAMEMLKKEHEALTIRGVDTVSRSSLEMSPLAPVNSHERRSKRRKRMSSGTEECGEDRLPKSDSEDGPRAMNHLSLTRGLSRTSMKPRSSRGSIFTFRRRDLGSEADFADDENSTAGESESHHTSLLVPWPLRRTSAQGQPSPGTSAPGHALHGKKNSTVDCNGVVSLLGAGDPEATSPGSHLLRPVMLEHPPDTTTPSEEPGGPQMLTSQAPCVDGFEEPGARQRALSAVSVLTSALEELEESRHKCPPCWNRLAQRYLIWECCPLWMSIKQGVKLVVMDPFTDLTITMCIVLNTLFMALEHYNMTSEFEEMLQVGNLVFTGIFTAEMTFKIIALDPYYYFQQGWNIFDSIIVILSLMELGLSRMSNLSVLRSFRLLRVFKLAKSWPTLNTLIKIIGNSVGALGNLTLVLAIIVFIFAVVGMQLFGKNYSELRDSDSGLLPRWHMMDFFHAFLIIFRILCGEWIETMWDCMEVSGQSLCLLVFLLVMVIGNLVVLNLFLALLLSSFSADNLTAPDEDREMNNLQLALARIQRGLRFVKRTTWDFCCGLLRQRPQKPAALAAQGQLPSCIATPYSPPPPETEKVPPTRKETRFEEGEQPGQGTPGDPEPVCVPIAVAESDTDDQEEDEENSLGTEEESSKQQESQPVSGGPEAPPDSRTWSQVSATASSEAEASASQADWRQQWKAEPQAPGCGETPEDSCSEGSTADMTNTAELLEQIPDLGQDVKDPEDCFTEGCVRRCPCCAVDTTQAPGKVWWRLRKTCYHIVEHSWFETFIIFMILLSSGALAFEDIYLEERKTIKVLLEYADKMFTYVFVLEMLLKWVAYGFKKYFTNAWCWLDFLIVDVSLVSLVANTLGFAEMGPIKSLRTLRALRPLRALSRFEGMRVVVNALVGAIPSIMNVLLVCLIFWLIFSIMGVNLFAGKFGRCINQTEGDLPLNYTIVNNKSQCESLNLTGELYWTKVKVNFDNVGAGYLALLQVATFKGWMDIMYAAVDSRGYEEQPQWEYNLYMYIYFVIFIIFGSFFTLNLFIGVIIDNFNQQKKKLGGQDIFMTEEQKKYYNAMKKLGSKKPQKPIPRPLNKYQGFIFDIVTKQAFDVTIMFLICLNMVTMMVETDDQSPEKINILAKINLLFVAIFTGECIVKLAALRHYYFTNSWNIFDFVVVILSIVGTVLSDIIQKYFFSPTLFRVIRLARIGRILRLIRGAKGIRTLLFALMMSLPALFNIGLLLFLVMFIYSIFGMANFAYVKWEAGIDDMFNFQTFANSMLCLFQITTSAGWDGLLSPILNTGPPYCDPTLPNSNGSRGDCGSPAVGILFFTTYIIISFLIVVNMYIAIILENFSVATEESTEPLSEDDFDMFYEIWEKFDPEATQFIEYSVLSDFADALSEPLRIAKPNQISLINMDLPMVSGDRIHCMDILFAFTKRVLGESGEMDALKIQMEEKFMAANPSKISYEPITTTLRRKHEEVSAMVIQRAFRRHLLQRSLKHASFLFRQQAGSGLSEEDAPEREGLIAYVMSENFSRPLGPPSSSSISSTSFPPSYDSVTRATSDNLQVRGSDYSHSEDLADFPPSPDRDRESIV
Description: as §1, §2, §3, §4, §5, §6, §7, §8, §9, §10, §11, §12, §13, §14

α2C‐adrenoceptor = α2C‐adrenoceptor (Homo sapiens, UniProt P18825); test: Affinity at α2C-adrenoceptor; type: binding
Sequence of α2C‐adrenoceptor (P18825 whole entry): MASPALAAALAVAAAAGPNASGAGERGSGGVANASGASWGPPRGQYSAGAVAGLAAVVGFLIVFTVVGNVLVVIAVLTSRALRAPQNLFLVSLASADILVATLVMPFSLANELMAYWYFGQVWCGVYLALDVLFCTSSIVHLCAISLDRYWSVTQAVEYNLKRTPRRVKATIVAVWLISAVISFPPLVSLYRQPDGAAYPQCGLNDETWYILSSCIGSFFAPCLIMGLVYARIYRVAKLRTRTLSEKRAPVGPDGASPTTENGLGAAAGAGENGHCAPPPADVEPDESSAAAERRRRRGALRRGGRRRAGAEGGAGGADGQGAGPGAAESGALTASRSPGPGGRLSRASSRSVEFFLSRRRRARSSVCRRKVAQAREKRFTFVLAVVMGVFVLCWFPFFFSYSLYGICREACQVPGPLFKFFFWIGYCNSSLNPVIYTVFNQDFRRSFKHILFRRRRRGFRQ

in vitro = conditions: human
[1] = human, 40 mg daily dosing; ref Shah et al., 2016; cited from earlier work
[2] = in house data
rabbit Purkinje fibres = test: Dofetilide-induced early after-depolarizations and triggered activity in rabbit Purkinje fibres; type: cell-based; conditions: for APD90: 0.25 Hz
Description: Following a lethal dose of pentobarbital, the hearts of male New Zealand rabbits were immediately excised and immersed in a modified Tyrode solution maintained at room temperature and previously saturated with O2/CO2 (95%/5%). A piece of ventricle containing free running Purkinje fibres was fixed to the silastic bottom of an organ bath perfused with the same solution maintained at 37°C for 30 min. The preparation was then superfused with the modified Tyrode solution and stimulated for 30 min at 2 Hz and then at 1 Hz (2 ms stimulus at twice threshold). […] After a stabilization period of at least 1 h, action potentials typical for Purkinje fibres were recorded. Action potential reproducibility and stability were confirmed during a further 20 min stabilization period. […] Each was applied for 20 min to enable steady state to be reached. In addition, the emergence of early after‐depolarizations (EADs), favoured by calcium loading during the late phase 2 of the prolonged action potential, is recognized as a better marker of pro‐arrhythmic potential than APD prolongation alone.

CaV3.2 = target: T1, CaV3.2 (Homo sapiens, UniProt O95180); test: Whole-cell patch clamp on CaV3.2 (ICaT); type: cell-based
T1 construct: expressed in transfected cells
T1 sequence (O95180 whole entry): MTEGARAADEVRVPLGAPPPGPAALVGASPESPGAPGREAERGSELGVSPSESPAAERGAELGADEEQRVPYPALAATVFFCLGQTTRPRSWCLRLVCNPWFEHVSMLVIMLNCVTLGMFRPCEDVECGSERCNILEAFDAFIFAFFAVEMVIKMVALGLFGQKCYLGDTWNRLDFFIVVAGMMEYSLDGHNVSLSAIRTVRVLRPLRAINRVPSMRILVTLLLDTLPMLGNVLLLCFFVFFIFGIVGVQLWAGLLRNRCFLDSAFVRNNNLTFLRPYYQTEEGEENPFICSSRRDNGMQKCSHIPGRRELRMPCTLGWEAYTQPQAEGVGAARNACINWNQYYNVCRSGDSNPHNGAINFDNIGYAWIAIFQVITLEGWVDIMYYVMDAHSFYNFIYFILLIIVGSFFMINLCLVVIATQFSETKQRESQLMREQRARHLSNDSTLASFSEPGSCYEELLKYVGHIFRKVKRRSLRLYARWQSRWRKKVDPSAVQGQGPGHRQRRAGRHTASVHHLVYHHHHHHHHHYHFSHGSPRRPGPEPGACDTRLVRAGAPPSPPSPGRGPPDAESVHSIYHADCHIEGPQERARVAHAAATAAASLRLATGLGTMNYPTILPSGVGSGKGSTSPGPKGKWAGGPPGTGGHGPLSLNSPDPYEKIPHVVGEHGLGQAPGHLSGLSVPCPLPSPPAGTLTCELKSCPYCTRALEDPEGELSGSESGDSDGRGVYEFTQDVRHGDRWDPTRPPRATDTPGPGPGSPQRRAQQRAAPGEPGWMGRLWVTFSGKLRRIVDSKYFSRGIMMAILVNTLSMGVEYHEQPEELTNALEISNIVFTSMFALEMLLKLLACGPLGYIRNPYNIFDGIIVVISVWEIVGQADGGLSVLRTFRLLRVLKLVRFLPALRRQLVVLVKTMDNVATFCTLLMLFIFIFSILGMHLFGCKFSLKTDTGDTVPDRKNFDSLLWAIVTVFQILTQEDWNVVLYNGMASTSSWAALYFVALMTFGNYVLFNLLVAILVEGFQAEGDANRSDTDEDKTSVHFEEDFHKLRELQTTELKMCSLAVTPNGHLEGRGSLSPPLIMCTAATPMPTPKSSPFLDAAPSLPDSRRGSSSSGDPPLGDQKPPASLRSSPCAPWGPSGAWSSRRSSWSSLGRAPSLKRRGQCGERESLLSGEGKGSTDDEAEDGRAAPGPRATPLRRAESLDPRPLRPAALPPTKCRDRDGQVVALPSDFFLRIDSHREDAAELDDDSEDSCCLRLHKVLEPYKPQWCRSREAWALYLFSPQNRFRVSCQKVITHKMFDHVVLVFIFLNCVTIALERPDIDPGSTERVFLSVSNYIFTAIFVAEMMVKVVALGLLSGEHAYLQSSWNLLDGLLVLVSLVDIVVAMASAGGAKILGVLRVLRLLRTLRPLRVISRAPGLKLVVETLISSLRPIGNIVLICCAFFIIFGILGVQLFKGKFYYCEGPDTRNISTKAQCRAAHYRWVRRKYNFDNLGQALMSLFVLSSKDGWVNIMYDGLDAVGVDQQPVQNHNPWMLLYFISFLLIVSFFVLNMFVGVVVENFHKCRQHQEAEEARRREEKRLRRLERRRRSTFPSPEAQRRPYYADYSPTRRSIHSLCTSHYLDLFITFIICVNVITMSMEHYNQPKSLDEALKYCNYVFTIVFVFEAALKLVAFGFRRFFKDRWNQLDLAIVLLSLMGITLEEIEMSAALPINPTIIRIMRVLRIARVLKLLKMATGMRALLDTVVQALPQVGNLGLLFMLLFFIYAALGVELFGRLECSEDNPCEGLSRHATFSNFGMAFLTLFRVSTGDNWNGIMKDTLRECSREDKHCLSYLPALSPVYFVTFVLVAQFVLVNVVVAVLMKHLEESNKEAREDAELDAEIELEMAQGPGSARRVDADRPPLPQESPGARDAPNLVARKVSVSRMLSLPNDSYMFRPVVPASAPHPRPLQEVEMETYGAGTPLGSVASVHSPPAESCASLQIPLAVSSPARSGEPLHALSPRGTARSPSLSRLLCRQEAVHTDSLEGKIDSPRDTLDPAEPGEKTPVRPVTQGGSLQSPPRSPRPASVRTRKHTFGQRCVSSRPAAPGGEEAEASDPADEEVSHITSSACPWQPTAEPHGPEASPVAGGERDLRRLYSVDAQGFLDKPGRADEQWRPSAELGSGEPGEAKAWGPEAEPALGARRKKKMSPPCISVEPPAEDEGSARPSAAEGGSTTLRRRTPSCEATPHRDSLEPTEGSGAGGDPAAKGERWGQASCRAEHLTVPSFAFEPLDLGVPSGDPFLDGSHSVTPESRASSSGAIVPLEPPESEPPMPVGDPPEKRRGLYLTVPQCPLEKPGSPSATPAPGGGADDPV
Description: as §1, §2, §3, §4, §5, §6, §7, §8, §9, §10, §11, §12, §13, §14

humans = conditions: human, ref Shah et al., 2016, cited from earlier work
[3] = 10 μM pitolisant, dofetilide 0.1 μM

**Q.** Which results are given for `Cl.Clc1ccc(CCCOCCCN2CCCCC2)cc1` [pitolisant, 1‐{3‐[3‐(4‐chlorophenyl)propoxy]propyl}piperidine, hydrochloride]?
**A.** IC50 (CaV1.2; Fitted IC50, CaV1.2 ICaL, Hill curve fit with Hill coefficient of one): 9.5 µM; IC50 (CaV1.2; Pitolisant IC50, CaV1.2, ICaL): ~10 µM; IC50 (NaV1.5; Fitted IC50, fit to fast inactivated Nav1.5): 26.3 µM; IC50 (NaV1.5; Fitted IC50, fit to slow inactivated Nav1.5): 26.5 µM; IC50 (NaV1.5; Fitted IC50, mean of fits to fast and slow inactivated Nav1.5, used for the whole Nav1.5 current, Hill coefficient of one): 26.4 µM; IC50 (NaV1.5; Pitolisant IC50, NaV1.5 fast inactivated state, INa): ≥ 10 µM; IC50 (NaV1.5; Pitolisant IC50, NaV1.5 resting state, INa): > 10 µM; IC50 (NaV1.5; Pitolisant IC50, NaV1.5 slow inactivated state, INa): ≥ 10 µM; Ki (α2C‐adrenoceptor): 1200 nM; fraction unbound (in vitro): ~0.04; highest clinically relevant exposure [1]: 72 ng/mL; protein-binding [2]: 96%; effect on dofetilide-induced EADs (rabbit Purkinje fibres; 1 μM pitolisant, dofetilide 0.1 μM): no effect (in four out of four experiments); inhibition of dofetilide-induced EADs (experiments) (rabbit Purkinje fibres; 3 μM pitolisant, dofetilide 0.1 μM): two out of three; suppression of dofetilide-induced EADs (experiments) (rabbit Purkinje fibres; [3]): all seven; suppression of dofetilide-induced spontaneous triggered activity (experiments) (rabbit Purkinje fibres; [3]): one out of one; APD90 (rabbit Purkinje fibres; dofetilide 0.1 μM for 1 h10 and pitolisant 10 μM for 15 min): 275 ms; APD90 (rabbit Purkinje fibres; dofetilide 0.1 μM for 55 min and pitolisant 1 μM for 20 min): 598 ms; IC50 (CaV3.2; CaV3.2 ICaT, Hill curve fit with Hill coefficient of one, read-out: Fitted IC50): 25.7 µM; IC50 (CaV3.2; Pitolisant IC50, CaV3.2, ICaT): ≥ 10 µM; maximum mean (90% CI) placebo-corrected increase in QTcF interval from baseline (ΔΔQTcF) (humans; 40 mg pitolisant hydrochloride, TQT study): 3.29 (0.35, 6.23) ms; Cmax (humans; 40 mg): 53 ± 27 ng/mL; maximum mean (90% CI) placebo-corrected increase in QTcF interval from baseline (ΔΔQTcF) (humans; 120 mg pitolisant hydrochloride, TQT study): 5.27 (2.35, 8.20) ms; Cmax (humans; 120 mg): 164 ± 63 ng/mL; maximum mean (90% CI) placebo-corrected increase in QTcF interval from baseline (ΔΔQTcF) (humans; 200 mg pitolisant hydrochloride, SAD study): 13.3 (8.1, 18.5) ms; maximum mean (90% CI) placebo-corrected increase in QTcF interval from baseline (ΔΔQTcF) (humans; 240 mg pitolisant hydrochloride, SAD study): 9.9 (4.7, 15.1) ms; Cmax (humans; 240 mg): 282 ± 47 ng/mL
